In patent US9966622B2, “Small organic molecule based flow battery” (President and Fellows of Harvard College, priority 2012, dated 2018):
Values after ≈ are worked out from the molar mass of the structure shown. Values joined by “and” are separate entries in the source; they are usually repeats but may differ in a detail not shown here. Equal values may be shown once. Read-outs that look alike come from different tables or passages of the source.

Tests used:
[1] = Half-cell cyclic voltammetry of quinones, E^0 (Example 13); assay type: physicochemical; settings: 1 mM in 1 M sulfuric acid, pH 0, glassy carbon, 25 mV/s
Experimental: 1 mM solutions of the quinones listed in the following table were prepared in 1 M sulfuric acid solution. The pH of the solutions was 0. Half-cell electrochemical data were recorded using a working electrode consisting of a flat 3 mm diameter disk of glassy carbon, a coiled platinum wire as a counter electrode, and a Ag/AgCl reference electrode. Cyclic voltammograms were recorded using sweep rates of 25 mV/s.

[2] = cited from earlier work
[3] = aqueous, no source given; cited from earlier work
[4] = Stability of quinone form in aqueous solution, cyclic voltammetry of catechol (Example 1); assay type: physicochemical; settings: 1 N H2SO4
Source text: 1 molal 1,2-ortho-benzohydroquinone (catechol) was oxidized in 1 N H2SO4 at a flat Pt electrode, obtaining the cyclic voltammetry curves shown in FIG. 3A. The sweep starts at (0.2 V, 0 mA/cm^2) and proceeds at 25 mV/s to the right. At about 600 mV vs. Ag/AgCl (the known E^0 is 795 mV vs. SHE), the current density increases as catechol is oxidized to the orthoquinone form. The oxidative current density peaks at about 150 mA/cm^2. The peak and downturn are caused by reactant depletion in a quiescent (non-flowing, non-stirred) electrolyte. In a test at a higher concentration of 3.9 molal (FIG. 3B), we observe asymmetric oxidation and reduction peaks, achieving current densities above 500 mA/cm^2 for the former. The asymmetric shape of the curve in FIG. 3B arises because the quinone form is unstable in aqueous solution. In addition the limited solubility of ortho-benzoquinone (0.06 M) compared to its reduced form precludes symmetric behavior at high concentration.

[5] = Pourbaix diagram of AQDS redox couple vs. pH (Example 5); assay type: physicochemical
Experimental: FIG. 5C is a Pourbaix diagram of AQDS. Solid lines indicate slopes of −59 mV/pH, −30 mV/pH, and 0 mV/pH, corresponding to two-, one-, and zero-proton processes respectively. Dashed lines linearly extrapolate the one- and zero-proton processes to give E^0 values of 18 mV (2 e^−/1 H^+) and −296 mV (2 e^−/0 H^+).
To further understand the AQDS redox behavior, we generated a Pourbaix diagram (FIG. 5C) of the equilibrium potential of the AQDS redox couple vs. pH. Aqueous 1 mM solutions of AQDS disodium salt were prepared and pH buffered using the following chemicals: sulfuric acid (1 M, pH 0), HSO4^−/SO4^2− (0.1 M, pH 1-2), AcOH/AcO^− (0.1 M, pH 2.65-5), H2PO4^−/HPO4^2− (0.1 M, pH 5.3-8), HPO4^2−/PO4^3− (0.1 M, pH 9.28-11.52), and KOH (0.1 M, pH 13). The pH of each solution was adjusted with 1 M H2SO4 or 0.1 M KOH solutions. […] In more basic conditions (7<pH<11), a two-electron, one-proton process occurred, giving a 30 mV/pH slope. The potential became pH-independent at values greater than 11, which indicated a two-electron, zero-proton process.

[6] = Stability of AQDS to Br2 / HBr by NMR (Example 12); assay type: physicochemical; settings: for stability to 2 M / concentrated HBr and Br2: heated to 100° C. for 48 h (two days)
Experimental: 50 mg of 9,10-anthraquinone-2,7-disulfonic acid was dissolved in 0.4 mL of D2O was treated with 100 μL of Br2. The ^1H and ^13C NMR spectra (FIGS. 17A-B and 18A-B) were unchanged from the starting material after standing for 20 hours at 25° C. 50 mg of AQDS was then treated with 1 mL of concentrated HBr and 100 μL of Br2. The reaction was heated to 100° C. for 48 h and evaporated to dryness at that temperature. The resulting solid was fully dissolved in D2O giving unchanged and ^1H and ^13C NMR (FIGS. 17C and 18C); however, the ^1H NMR reference was shifted due to residual acid.

Aqueous solubility = assay type: physicochemical; settings: pH 0, aqueous buffer
[7] = Rotating disk electrode measurements of AQDS (Example 4); assay type: physicochemical
Experimental: FIG. 5B is a graph of rotating disk electrode measurements using a glassy carbon electrode in 1 M H2SO4 at eleven rotation rates ranging from 200 (red) to 3600 rpm (dk. green).
FIG. 6 is a Levich plot (current vs. rotation rate) of 1 mM AQDS in 1 M H2SO4. Best fit line has a slope of 0.453(2) μA s^1/2 rad^−1/2.
FIG. 7 is a Koutecký-Levich plot (current^−1 vs. rotation rate^−1/2).
FIG. 8 is a Tafel plot (overpotential vs. log(current)) constructed using the current response in the absence of mass-transport at low overpotentials, extrapolated from the zero-intercept of FIG. 7 (infinite rotation rate). Best fit line is the function y=62(x+4.32). This yields α=0.474(2) and k0=7.2(5)×10^−3 cm s^−1.
The glassy carbon disk in Example 3 was rotated at a variety of rates yields mass-transport limited currents from which the AQDS diffusion coefficient (D=3.8(1)×10^−6 cm^2 s^−1)(compare D in [38]) and kinetic reduction rate constant could be determined (FIGS. 5B, 6, 7, and 8). […] This rate constant was faster than that found for many other species used in flow cells such as V^3+/V^2+, Br2/Br^−, and S4^2−/S2^2− (see Table 2 in [40]). The electrochemical reversibility of the two-electron redox reaction was confirmed by the slope of the Tafel plot (FIG. 8), which gave the transfer coefficient α=0.474, which is close to the value of 0.5 expected for an ideally reversible reaction.

[8] = Cyclic voltammetry of AQDS on glassy carbon (Example 3); assay type: physicochemical; settings: 1 mM in 1 M sulfuric acid, glassy carbon disc
Source text: AQDS was subjected to half-cell electrochemical measurements. […] The peak separation of 34 mV was close to the 59 mV/n, where n was the number of electrons involved, expected for a two-electron process.

[9] = Half-cell cyclic voltammetry compared with AQDS (Examples 6 and 7); assay type: physicochemical; settings: 1 mM in 1 M H2SO4; listed as 1,8-(OH)2-AQDS

| Molecule | Standard Reduction Potential E^0 in Volts vs. the standard hydrogen electrode (SHE) [1] [Volts] | other results |
| --- | --- | --- |
| 2-bromo-1,4-naphthoquinone-3-sulfonic acid [Entry 14] | 0.371 | – |
| O=C1c2ccccc2C(=O)c2c(O)c(S(=O)(=O)O)cc(O)c21 [Entry 9, 1,4-dihydroxy-9,10-anthraquinone-2-sulfonic acid] | 0.094 | – |
| CC1=C(C)C(=O)C(C)=C(C)C1=O [tetramethylbenzoquinone] | – | redox potential ([2]; aqueous, literature values [28], [29]): 0.040 V and 0.068 V |
| O=C1C=C(S(=O)(=O)O)C(=O)c2ccccc21 [Entry 12, 1,4-naphthoquinone-2-sulfonic acid] | 0.356 | – |
| O=C1c2cccc(S(=O)(=O)O)c2C(=O)c2c1cccc2S(=O)(=O)O [Entry 3, 9,10-anthraquinone-1,8-disulfonic acid] | 0.182 | – |
| O=C1c2ccccc2C(=O)c2cc(CS(=O)(=O)O)c(CS(=O)(=O)O)cc21 [Entry 6, 9,10-anthraquinone-2,3-dimethanesulfonic acid] | 0.114 | – |
| O=C1C=CC=CC1=O [ortho-benzoquinone] | – | solubility [3]: 60 mM (≈ 6.49 mg/mL); stability in aqueous solution [4]: unstable |
| O=C1c2ccccc2C(=O)c2cc(S(=O)(=O)O)ccc21 [Entry 5, 9,10-anthraquinone-2-sulfonic acid] | 0.171 | – |
| O=C1c2ccc(S(=O)(=O)O)c(O)c2C(=O)c2ccc(S(=O)(=O)O)c(O)c21 [Entry 8, 1,5-dihydroxy-9,10-anthraquinone-2,6-disulfonic acid] | 0.116 | – |
| O=C1c2cccc(S(=O)(=O)O)c2C(=O)c2cccc(S(=O)(=O)O)c21 [Entry 4, 9,10-anthraquinone-1,5-disulfonic acid] | 0.223 | – |
| O=C1c2ccccc2C(=O)c2c(O)c(S(=O)(=O)O)c(O)c(O)c21 [Entry 10, 1,3,4-trihydroxy-9,10-anthraquinone-2-sulfonic acid] | 0.088 | – |
| O=C1C=C(S(=O)(=O)O)c2ccccc2C1=O [Entry 11, 1,2-naphthoquinone-4-sulfonic acid] | 0.423 | – |
| Oc1ccccc1O [catechol, 1,2-ortho-benzohydroquinone] | – | known E^0 ([2]; vs. SHE): 795 mV |
| O=C1c2ccc(S(=O)(=O)O)cc2C(=O)c2ccc(S(=O)(=O)O)cc21 [Entry 2, 9,10-anthraquinone-2,6-disulfonic acid] | 0.212 | – |
| O=C1C(Cl)=C(S(=O)(=O)O)C(=O)c2ccccc21 [Entry 13, 2-chloro-1,4-naphthoquinone-3-sulfonic acid] | 0.368 | – |
| O=C1c2ccc(S(=O)(=O)O)cc2C(=O)c2cc(S(=O)(=O)O)ccc21 [Entry 1, 9,10-anthraquinone-2,7-disulfonic acid] | 0.213 | E^0 (2 e^−/1 H^+), extrapolated ([5]; linear extrapolation of one-proton process): 18 mV; E^0 (2 e^−/0 H^+), extrapolated ([5]; linear extrapolation of zero-proton process): −296 mV; stability to 2 M / concentrated HBr and Br2 [6]: no reaction; stability to 2 M / concentrated HBr and Br2 ([6]; listed as 9,10-anthraquinone-2,7-disulfonate): stable; stability to Br2 (1H and 13C NMR spectra) ([6]; in D2O, 20 hours at 25° C.): unchanged; solubility (Aqueous solubility): ~1000 mM (≈ 368 mg/mL); diffusion coefficient D ([7]; 1 mM in 1 M H2SO4, rotating glassy carbon disk): 3.8(1)×10^−6 cm^2 s^−1; kinetic reduction rate constant k0 ([7]; reduction on glassy carbon, 1 M H2SO4): 7.2(5)×10^−3 cm s^−1; peak separation (cyclic voltammetry) [8]: 34 mV |
| O=C1c2ccc(S(=O)(=O)O)c(O)c2C(=O)c2c1ccc(S(=O)(=O)O)c2O [Entry 7, 1,8-dihydroxy-9,10-anthraquinone-2,7-disulfonic acid] | 0.118 | lowering of reduction potential relative to AQDS [9]: ~100 mV and 95 mV |
